Measured values from patent EP2752191A1, “Compositions and methods using hdm2 antagonist and mek inhibitor” (SANOFI, priority 2013, dated 2014).

Key:
[1] = system: panel of twenty cell lines; experiment: HDM2-p53 inhibitor / MEK inhibitor combination screen, ATPLite growth inhibition 72 h, Loewe synergy (Example 1); format: cell-based; conditions: at an FDR < 5% in some cell lines (FIG. 1)
Procedure: (§1) The combinations of HDM2-p53 inhibitor and MEK inhibitor were examined in a panel of twenty cell lines (Table 2).
(§2) A 36-point combination dose response matrix over a treatment time of seventy-two hours was used. The method by which this screen was performed is described below.
(§3) Cells were thawed from a liquid nitrogen preserved state. Once cells had been expanded and divided at their expected doubling times, cells were seeded in complete media (Table 3) at 100 cells per well in black 1536 tissue culture treated plates. Assay plates were centrifuged for 2 min at 335 x g, incubated at room temperature for 20 min, and incubated at 37° C for 24 hours before treatment.
(§4) ATP levels were used as a measure of cell number (cell growth). At the time of treatment, ATP levels were measured in an untreated set of assay plates (Tzero plates). ATP levels were measured by adding ATPLite (Perkin Elmer) according to manufacturer's instructions. The Tzero plates were read using ultra-sensitive luminescence on Envision Plate Readers. Assay plates receiving treatment were incubated with compound for 72 h at 37° C with 5% CO2. After 72 h, plates were developed for endpoint analysis using ATPLite.
Assay plates were accepted for analysis if they passed the following quality control standards: relative luciferase values were consistent throughout the entire experiment, Z' factor scores were greater than 0.6, untreated/vehicle controls behaved consistently on the plate. The calculation for synergy score is provided below.
(§5) Growth Inhibition (GI) was used as a measure of cell viability. As described above, ATP levels were measured at the time of dosing (T0) and after 72 hours (T72). The effect of vehicle alone on cell viability was determined by measuring ATP levels at T0 and 72 hours after treatment of cells with vehicle alone (T72).
GI was calculated by applying the following test and equation: If T < V0 :100*(1-T-V0/V0) [formula] If T ≥ V0 :100*(1-T-V0/V-V0) [formula]
Where T is the signal measure for a test article, V is the vehicle-treated control measure, and V0 is the vehicle control measure at time zero. This formula is derived from the Growth Inhibition calculation used in the National Cancer Institute's NCI-60 high throughput screen, as described on the world wide web at dtp.nci.nih.gov/branches/btb/ivclsp.html. A GI reading of 0% represents no growth inhibition-that is, cells treated with compound had similar levels of ATP as cells treated with vehicle and measured at 72 hours. A GI of 100% represents complete growth inhibition-that is, cells treated with compound had similar levels of ATP as cells treated with vehicle and measured at T0. A GI of 100% where cell numbers have not increased during the treatment period is indicative of a cytostatic effect for compounds reaching a plateau at this effect level. A GI of 200% represents complete death of all cells in the culture well which is indicative of an apoptotic effect.
For each cell line, the dose-response curve was measured with each HDM2-p53 antagonist and each MEK inhibitor as single agents and in pair wise combinations. Using the potency values from the single agent dose-response curves, the compounds were assigned to different groups of similar potency. Multiple doses above and below the EC50 of a given HDM2-p53 antagonist or MEK inhibitor were measured.
In each well of a plate, ATP levels were measured by […] assay as described above. ATP levels are proportional to the number of remaining live cells. […]

[2] = system: MV4-11 cells; experiment: ATPLite growth inhibition 72 h, dose matrix (Example 1); format: cell-based; conditions: single agents, or Compound (1) with Compound (6) present at 3.3 uM; 72 h (FIG. 3)
Procedure: as §1, §2, §3
as §4, with “Assay plates receiving treatment were incubated with compound for 72 h at 37° C with 5% CO2. After 72 h, plates were developed for endpoint analysis using ATPLite.” left out
as §5, with “alone (T72). […]” for “alone (T72).”

[3] = system: C32 cells; experiment: as above; format: cell-based; conditions: single agents, or Compound (1) with Compound (6) present at 1.1 uM; 72 h (FIG. 2)
Procedure: as §1, §2, §3
as §4, with “Assay plates receiving treatment were incubated with compound for 72 h at 37° C with 5% CO2. After 72 h, plates were developed for endpoint analysis using ATPLite.” left out
as §5, with “alone (T72). […]” for “alone (T72).”

[4] = system: 217 kinases; conditions: tested at 10 µM; cited from earlier work
[5] = system: 90 non-kinase targets; conditions: tested at 10 µM; cited from earlier work

| SMILES | Loewe synergy with both Compound (1) and Compound (2) [1] | also measured |
| --- | --- | --- |
| Cc1cnc(Nc2ccc(F)cc2Cl)nc1-c1c[nH]c(C(=O)N[C@H](CO)c2cccc(Cl)c2)c1 [Compound (8), 4-[2-(2-chloro-4-fluorophenylamino)-5-methylpyrimidin-4-yl]-N-[1(S)-(3-chlorophenyl)-2-hydroxyethyl]-1H-pyrrole-2-carboxamide] | statistically significant Loewe synergy | – |
| COc1cc2c(Nc3ccc(Oc4ccccc4)cc3)c(C#N)cnc2cc1OCCCN1CCOCC1 [Compound (10), 6-methoxy-7-[3-(4-morpholinyl)propoxy]-4-(4-phenoxyphenylamino)quinoline-3-carbonitrile] | statistically significant Loewe synergy | – |
| Cn1cnc2c(F)c(Nc3ccc(Br)cc3Cl)c(C(=O)NOCCO)cc21 [Compound (6)] | statistically significant Loewe synergy | effect on MV4-11 cells (growth inhibition) [2]: cytostasis; effect on C32 cells (growth inhibition) [3]: cytostasis |
| CNS(=O)(=O)Nc1nccc(Cc2c(C)c3ccc(Oc4ncccn4)cc3oc2=O)c1F [Compound (9), N-[3-fluoro-4-[4-methyl-2-oxo-7-(pyrimidin-2-yloxy)-2H-1-benzopyran-3-ylmethyl]pyridin-2-yl]-N'-methylsulfamide] | statistically significant Loewe synergy | – |
| O=C(NOCC(O)CO)c1ccc(F)c(F)c1Nc1ccc(I)cc1F (stereo not drawn) [Compound (7), N-(2,3-dihydroxy-propoxy)-3,4-difluoro-2-(2-fluoro-4-iodo-phenylamino)-benzamide] | statistically significant Loewe synergy | – |
| O=C(NC[C@H](O)CO)c1ccncc1Nc1ccc(I)cc1F [Compound (4), N-((S)-2,3-dihydroxypropyl)-3-(2-fluoro-4-iodo-phenylamino)isonicotinamide] | – | activity against 217 kinases [4]: no activity; activity against 90 non-kinase targets [5]: no activity |
